Experimental data reported in patent publication US8551984B2, “Aminopyrimidines as SYK inhibitors” (Merck Sharp & Dohme Corp., priority 2009, dated 2013).

Target: recombinant human SYK (GST-hSYK fusion protein) (Homo sapiens, UniProt P43405)
Assay: biochemical
Details: rhSYK Activity (IC50), recombinant human GST-SYK 5 pM, ATP 25 μM, biotinylated substrate peptide 250 nM, HTRF, 10-dose titration
From the text: Homogeneous Time-Resolved Fluorescence (HTRF) Assay for the Recombinant Human SYK Enzyme:

Structure (SMILES)	IC50
Cc1cc(Nc2nccc(C(F)(F)F)n2)cc(-c2cnc(C(=O)N[C@H](c3ccccc3)[C@@H](O)C(=O)O)s2)c1 [Example 87A-32]	< 100 nM
Cc1cc(Nc2nccc(C(F)(F)F)n2)cc(-c2cnc(C(=O)NC3CCC(C(=O)O)CC3)s2)c1 (stereo not shown) [Example 87A-37]	< 100 nM
NC(=O)c1ncc(-c2cccc(Nc3nccc(C(F)(F)F)n3)c2)s1 [Example 87A-38]	< 100 nM
Cc1cc(Nc2nccc(C(F)(F)F)n2)cc(-c2cnc(C(=O)N3CCN(C)C(=O)C3)s2)c1 [Example 87B-4]	< 100 nM
Cc1cc(Nc2nccc(C(F)(F)F)n2)cc(-c2cnc(C(=O)N3CCN(C)C(=O)C3C)s2)c1 (stereo not shown) [Example 87B-5]	100 to 1000 nM
Cc1cc(Nc2nccc(C(F)(F)F)n2)cc(-c2cnc(C(=O)N3CCn4cccc4C3)s2)c1 [Example 87B-6]	< 100 nM
CC(=O)N1CCN(C(=O)c2ncc(-c3cc(C)cc(Nc4nccc(C(F)(F)F)n4)c3)s2)CC1 [Example 87B-7]	100 to 1000 nM
Cc1cc(Nc2nccc(C(F)(F)F)n2)cc(-c2cnc(C(=O)N3CCn4ccnc4C3)s2)c1 [Example 87B-9]	< 100 nM
Cc1cc(Nc2nccc(C(F)(F)F)n2)cc(-c2cnc(C(=O)N3CCC[S+]([O-])CC3)s2)c1 (stereo not shown) [Example 87B-13]	< 100 nM
Cc1cc(Nc2nccc(C(F)(F)F)n2)cc(-c2cnc(C(=O)N3CCS(=O)(=O)CC3)s2)c1 [Example 87B-14]	100 to 1000 nM
Cc1cc(Nc2nccc(C(F)(F)F)n2)cc(-c2cnc(C(=O)N3CCN(CC(F)(F)F)CC3)s2)c1 [Example 87B-15]	1000 to 10000 nM
Cc1cc(Nc2nccc(C(F)(F)F)n2)cc(-c2cnc(C(=O)N3CCC(C(=O)O)CC3)s2)c1 [Example 87B-19]	< 100 nM
Cc1cc(Nc2nccc(C(F)(F)F)n2)cc(-c2cnc(C(=O)N3CC(O)CC3C(=O)O)s2)c1 (stereo not shown) [Example 87B-20]	< 100 nM
COC(=O)C1CC(O)CN1C(=O)c1ncc(-c2cc(C)cc(Nc3nccc(C(F)(F)F)n3)c2)s1 (stereo not shown) [Example 87B-21]	< 100 nM
Cc1cc(Nc2nccc(C(F)(F)F)n2)cc(-c2cnc(C(=O)N3CCC(O)(C(=O)O)CC3)s2)c1 [Example 87B-22]	< 100 nM
Cc1cc(Nc2nccc(C(F)(F)F)n2)cc(-c2cnc(CNCC3CCC(=O)N3)s2)c1 (stereo not shown) [Example 88, 5-[({[5-(3-methyl-5-{[4-(trifluoromethyl)pyrimidin-2-yl]amino}phenyl)-1,3-thiazol-2-yl]-methyl}amino)methyl]pyrrolidin-2-one]	< 100 nM
Cc1cc(Nc2nccc(C(F)(F)F)n2)cc(-c2cnc(CNc3cncnc3)s2)c1 [Example 88A-1]	< 100 nM
Cc1cc(Nc2nccc(C(F)(F)F)n2)cc(-c2cnc(CNCC(O)C(F)F)s2)c1 (stereo not shown) [Example 88A-2]	< 100 nM

Structure (SMILES)	IC50
Cc1cc(Nc2nccc(C(F)(F)F)n2)cc(-c2cnc(CNCc3n[nH]c(=O)[nH]3)s2)c1 [Example 88A-3]	< 100 nM
Cc1cc(Nc2nccc(C(F)(F)F)n2)cc(-c2cnc(CNC3CCS(=O)(=O)C3)s2)c1 (stereo not shown) [Example 88A-5]	< 100 nM
Cc1cc(Nc2nccc(C(F)(F)F)n2)cc(-c2cnc(CN(C)C(C3CC3)C3CC3)s2)c1 [Example 88A-7]	< 100 nM
C=C(F)CNCc1ncc(-c2cc(C)cc(Nc3nccc(C(F)(F)F)n3)c2)s1 [Example 88A-8]	< 100 nM
Cc1cc(Nc2nccc(C(F)(F)F)n2)cc(-c2cnc(CNC(C)c3ccccn3)s2)c1 (stereo not shown) [Example 88A-9]	< 100 nM
Cc1cc(Nc2nccc(C(F)(F)F)n2)cc(-c2cnc(CNc3cn(C(C)C)nn3)s2)c1 [Example 88A-10]	< 100 nM
Cc1cc(Nc2nccc(C(F)(F)F)n2)cc(-c2cnc(CNCCCCO)s2)c1 [Example 88A-20]	< 100 nM
Cc1cc(Nc2nccc(C(F)(F)F)n2)cc(-c2cnc(CNCCS(C)(=O)=O)s2)c1 [Example 88A-24]	< 100 nM
CCn1cc(NCc2ncc(-c3cc(C)cc(Nc4nccc(C(F)(F)F)n4)c3)s2)nn1 [Example 88A-26]	< 100 nM
Cc1cc(Nc2nccc(C(F)(F)F)n2)cc(-c2cnc(CNC3CCCCNC3=O)s2)c1 (stereo not shown) [Example 88A-29]	< 100 nM
Cc1cc(Nc2nccc(C(F)(F)F)n2)cc(-c2cnc(CNCCN3CCNC(=O)C3)s2)c1 [Example 88A-30]	< 100 nM
CNS(=O)(=O)CCNCc1ncc(-c2cc(C)cc(Nc3nccc(C(F)(F)F)n3)c2)s1 [Example 88A-31]	< 100 nM
Cc1cc(Nc2nccc(C(F)(F)F)n2)cc(-c2cnc(CNc3cc(C(=O)O)n[nH]3)s2)c1 [Example 88A-32]	< 100 nM
Cc1cc(Nc2nccc(C(F)(F)F)n2)cc(-c2cnc(CNC3CCNC3=O)s2)c1 (stereo not shown) [Example 88A-35]	< 100 nM
Cc1cc(Nc2nccc(C(F)(F)F)n2)cc(-c2cnc(CNC3CNC(=O)C3)s2)c1 (stereo not shown) [Example 88A-36]	< 100 nM
Cc1cc(Nc2nccc(C(F)(F)F)n2)cc(-c2cnc(C(C)NC3CNC(=O)C3)s2)c1 (stereo not shown) [Example 88A-39]	< 100 nM
Cc1cc(Nc2nccc(C(F)(F)F)n2)cc(-c2cnc(CNCCOCCO)s2)c1 [Example 88A-42]	< 100 nM

Continued, values first:

IC50	Structure (SMILES)
< 100 nM	C=C(F)CNC(=O)c1ncc(-c2cc(C)cc(Nc3nccc(C(F)(F)F)n3)c2)s1 [Example 87A-19]
< 100 nM	Cc1cc(Nc2nccc(C(F)(F)F)n2)cc(-c2cnc(C(=O)NCC3COCCO3)s2)c1 (stereo not shown) [Example 87A-20]
< 100 nM	Cc1cc(Nc2nccc(C(F)(F)F)n2)cc(-c2cnc(C(=O)N(C)Cc3nccn3C)s2)c1 [Example 87A-21]
100 to 1000 nM	Cc1cc(Nc2nccc(C(F)(F)F)n2)cc(-c2cnc(C(=O)N(C)CC3COCCO3)s2)c1 (stereo not shown) [Example 87A-23]
< 100 nM	COCC(O)CNC(=O)c1ncc(-c2cc(C)cc(Nc3nccc(C(F)(F)F)n3)c2)s1 (stereo not shown) [Example 87A-24]
< 100 nM	Cc1cc(Nc2nccc(C(F)(F)F)n2)cc(-c2cnc(C(=O)NCc3ncc[nH]3)s2)c1 [Example 87A-25]
< 100 nM	Cc1cc(Nc2nccc(C(F)(F)F)n2)cc(-c2cnc(C(=O)N(C)CC(O)CO)s2)c1 (stereo not shown) [Example 87A-26]
1000 to 10000 nM	Cc1cc(Nc2nccc(C(F)(F)F)n2)cc(-c2cnc(C(=O)N(C)CCS(C)(=O)=O)s2)c1 [Example 87A-27]
100 to 1000 nM	CCN(C)C(=O)c1ncc(-c2cc(C)cc(Nc3nccc(C(F)(F)F)n3)c2)s1 [Example 87A-28]
< 100 nM	Cc1cc(Nc2nccc(C(F)(F)F)n2)cc(-c2cnc(C(=O)N(CCO)CCO)s2)c1 [Example 87A-29]
< 100 nM	CNC(=O)CN(C)C(=O)c1ncc(-c2cc(C)cc(Nc3nccc(C(F)(F)F)n3)c2)s1 [Example 87A-30]
< 100 nM	Cc1cc(Nc2nccc(C(F)(F)F)n2)cc(-c2cnc(C(=O)NC(CO)(CO)CO)s2)c1 [Example 87A-34]
< 100 nM	Cc1cc(Nc2nccc(C(F)(F)F)n2)cc(-c2cnc(C(=O)NCCC(=O)O)s2)c1 [Example 87A-35]
< 100 nM	Cc1cc(Nc2nccc(C(F)(F)F)n2)cc(-c2cnc(C(=O)NCCCN(CCO)CCO)s2)c1 [Example 87A-36]
100 to 1000 nM	Cc1cc(Nc2nccc(C(F)(F)F)n2)cc(-c2cnc(C(=O)N3CCCC3)s2)c1 [Example 87B-1]
100 to 1000 nM	Cc1cc(Nc2nccc(C(F)(F)F)n2)cc(-c2cnc(C(=O)N3CCN(C)CC3)s2)c1 [Example 87B-3]
< 100 nM	Cc1cc(Nc2nccc(C(F)(F)F)n2)cc(-c2cnc(C(=O)N3CC[C@@H](CO)C3)s2)c1 [Example 87B-11]
< 100 nM	Cc1cc(Nc2nccc(C(F)(F)F)n2)cc(-c2cnc(C(=O)N3CCC(C)(O)C3)s2)c1 (stereo not shown) [Example 87B-12]
< 100 nM	Cc1cc(Nc2nccc(C(F)(F)F)n2)cc(-c2cnc(C(=O)N3CC[C@H](CO)C3)s2)c1 [Example 87B-16]

IC50	Structure (SMILES)
< 100 nM	Cc1cc(Nc2nccc(C(F)(F)F)n2)cc(-c2cnc(C(=O)N3CCC(O)C3)s2)c1 (stereo not shown) [Example 87B-17]
< 100 nM	Cc1cc(Nc2nccc(C(F)(F)F)n2)cc(-c2cnc(C(=O)N3C[C@@H](O)[C@@H](O)C3)s2)c1 [Example 87B-18]
< 100 nM	Cc1cc(Nc2nccc(C(F)(F)F)n2)cc(-c2cnc(CN(C)CCO)s2)c1 [Example 88A-12]
< 100 nM	Cc1cc(Nc2nccc(C(F)(F)F)n2)cc(-c2cnc(CN(CCO)CCO)s2)c1 [Example 88A-13]
< 100 nM	Cc1cc(Nc2nccc(C(F)(F)F)n2)cc(-c2cnc(CNC(C)(CO)CO)s2)c1 [Example 88A-14]
< 100 nM	Cc1cc(Nc2nccc(C(F)(F)F)n2)cc(-c2cnc(CNC(C)CO)s2)c1 (stereo not shown) [Example 88A-15]
< 100 nM	CCC(CO)NCc1ncc(-c2cc(C)cc(Nc3nccc(C(F)(F)F)n3)c2)s1 (stereo not shown) [Example 88A-16]
< 100 nM	Cc1cc(Nc2nccc(C(F)(F)F)n2)cc(-c2cnc(CNCC(C)O)s2)c1 (stereo not shown) [Example 88A-17]
< 100 nM	Cc1cc(Nc2nccc(C(F)(F)F)n2)cc(-c2cnc(CNCCO)s2)c1 [Example 88A-18]
< 100 nM	Cc1cc(Nc2nccc(C(F)(F)F)n2)cc(-c2cnc(CNCCCO)s2)c1 [Example 88A-19]
< 100 nM	Cc1cc(Nc2nccc(C(F)(F)F)n2)cc(-c2cnc(CNC3(C(=O)O)CC3)s2)c1 [Example 88A-21]
< 100 nM	Cc1cc(Nc2nccc(C(F)(F)F)n2)cc(-c2cnc(CNCC(N)=O)s2)c1 [Example 88A-22]
< 100 nM	Cc1cc(Nc2nccc(C(F)(F)F)n2)cc(-c2cnc(CNCCC(N)=O)s2)c1 [Example 88A-23]
< 100 nM	Cc1cc(Nc2nccc(C(F)(F)F)n2)cc(-c2cnc(CN(C)CCS(C)(=O)=O)s2)c1 [Example 88A-25]
< 100 nM	Cc1cc(Nc2nccc(C(F)(F)F)n2)cc(-c2cnc(CN(C)CC(O)CO)s2)c1 (stereo not shown) [Example 88A-28]
< 100 nM	Cc1cc(Nc2nccc(C(F)(F)F)n2)cc(-c2cnc(CNCC(C)(C)O)s2)c1 [Example 88A-33]
< 100 nM	Cc1cc(Nc2nccc(C(F)(F)F)n2)cc(-c2cnc(C(C)N(C)C)s2)c1 (stereo not shown) [Example 88A-38]
< 100 nM	Cc1cc(Nc2nccc(C(F)(F)F)n2)cc(-c2cnc(CN)s2)c1 [Example 88A-40]
< 100 nM	Cc1cc(Nc2nccc(C(F)(F)F)n2)cc(-c2cnc(CNCC(O)CO)s2)c1 (stereo not shown) [Example 88A-41]
